Experiments:
Type in all cases: biochemical
FLT4 (h) = target: T1, FLT4 (h) (Homo sapiens, UniProt P35916); assay: FLT4 (h) kinase assay; conditions: [γ-33P-ATP] 10 μM or KM values; cells tagged (Flt4); read-out: IC50 (Flt4), printed in the FLT3 (h) column
T1 construct: purchased Millipore UK Ltd (assays performed there as a service)
Description: (§1) Kinase assays can be performed by measurement of incorporation of γ-^33P ATP into immobilized myelin basic protein (MBP). High binding white 384 well plates (Greiner) are coated with MBP (Sigma # M-1891) by incubation of 60 μL well of 20 μg/mL MBP in Tris-buffered saline (TBS; 50 mM Tris pH 8.0, 138 mM NaCl, 2.7 mM KCl) for 24 h at 4° C. Plates are washed 3× with 100 μL TBS. Kinase reactions are carried out in a total volume of 34 μL in kinase buffer (according to the need to make, for example, 5 mM Hepes pH 7.6, 15 mM NaCl, 0.01% bovine gamma globulin (Sigma #1-5506), 10 mM MgCl2, 1 mM DTT, 0.02% TritonX-100). Compound dilutions are performed in DMSO and added to assay wells to a final DMSO concentration of 1%. Each data point is measured in duplicate, and at least two duplicate assays are performed for each individual compound determination. Enzyme is added to final concentrations of 10 nM or 20 nM, for example. A mixture of unlabeled ATP and γ-^33P ATP is added to start the reaction (2×10^6 cpm of γ-^33P ATP per well (3000 Ci/mmole) and 10 μM unlabeled ATP, typically. The reactions are carried out for 1 hour at room temperature with shaking. Plates are washed 7× with TBS, followed by the addition of 50 μL well scintillation fluid (Wallac). Plates are read using a Wallac Trilux counter. This is only one format of such assays; various other formats are possible, as known to one skilled in the art.
(§2) The above assay procedure can be used to determine the IC50 for inhibition and/or the inhibition constant, Ki. […] The IC50 value is estimated by preparing a 10 point curve using a ½ log dilution series (for example, a typical curve may be prepared using the following compound concentrations: 3 μM, 1 μM, 0.3 μM, 0.1 μM, 0.03 μM, 0.01 μM, 0.003 μM, 0.001 μM, 0.0003 μM and 0 μM).
(§3) FLT4 (h) is incubated with 8 mM MOPS pH 7.0, 0.2 mM EDTA, 50 μM […], 10 mM MgAcetate and [γ-^33P-ATP] […] The reaction is initiated by the addition of the MgATP mix. After incubation for 40 minutes at room temperature, the reaction is stopped by the addition of 3% phosphoric acid solution. 10 μL of the reaction is then spotted onto a P30 filtermat and washed three times for 5 minutes in 75 mM phosphoric acid and once in methanol prior to drying and scintillation counting.
(§4) The kinase assays described herein were performed at Millipore UK Ltd, Dundee Technology Park, Dundee DD2 1SW, UK.

JAK3 (h) = target: T2, JAK3 (h) (Homo sapiens, UniProt P52333); assay: JAK3 (h) kinase assay; conditions: [γ-33P-ATP] 10 μM or KM values; 40 minutes at room temperature
T2 construct: purchased Millipore UK Ltd (assays performed there as a service)
T2 sequence (P52333 1-1124): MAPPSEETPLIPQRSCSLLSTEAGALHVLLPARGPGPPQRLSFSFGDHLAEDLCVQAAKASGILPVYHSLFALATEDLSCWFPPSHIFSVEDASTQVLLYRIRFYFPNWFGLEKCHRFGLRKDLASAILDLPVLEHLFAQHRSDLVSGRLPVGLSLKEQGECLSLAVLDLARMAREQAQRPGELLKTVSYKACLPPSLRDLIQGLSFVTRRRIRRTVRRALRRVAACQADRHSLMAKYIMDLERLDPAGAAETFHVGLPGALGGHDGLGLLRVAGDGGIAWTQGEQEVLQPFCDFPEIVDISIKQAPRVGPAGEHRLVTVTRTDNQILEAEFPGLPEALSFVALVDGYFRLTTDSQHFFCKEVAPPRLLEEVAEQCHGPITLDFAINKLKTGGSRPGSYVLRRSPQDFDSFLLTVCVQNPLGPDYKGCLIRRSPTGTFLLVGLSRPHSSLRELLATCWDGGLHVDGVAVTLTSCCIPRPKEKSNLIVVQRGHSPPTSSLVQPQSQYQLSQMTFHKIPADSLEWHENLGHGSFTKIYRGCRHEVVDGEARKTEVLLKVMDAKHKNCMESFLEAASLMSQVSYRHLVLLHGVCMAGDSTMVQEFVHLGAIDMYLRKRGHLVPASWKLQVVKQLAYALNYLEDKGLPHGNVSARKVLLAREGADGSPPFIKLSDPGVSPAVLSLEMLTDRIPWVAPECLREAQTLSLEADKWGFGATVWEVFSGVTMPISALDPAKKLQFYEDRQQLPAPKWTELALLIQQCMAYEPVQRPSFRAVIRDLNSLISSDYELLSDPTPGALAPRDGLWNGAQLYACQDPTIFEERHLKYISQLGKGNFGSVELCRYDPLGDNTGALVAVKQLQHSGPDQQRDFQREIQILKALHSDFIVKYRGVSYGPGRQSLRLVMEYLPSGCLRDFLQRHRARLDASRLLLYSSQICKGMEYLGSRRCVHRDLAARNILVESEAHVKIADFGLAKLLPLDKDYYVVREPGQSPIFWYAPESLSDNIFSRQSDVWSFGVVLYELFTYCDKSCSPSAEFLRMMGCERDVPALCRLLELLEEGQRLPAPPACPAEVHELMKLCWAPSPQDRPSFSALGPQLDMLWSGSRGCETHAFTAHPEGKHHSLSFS
Description: as §1, §2
[…] The reaction is initiated by the addition of the MgATP mix. After incubation for 40 minutes at room temperature, the reaction is stopped by the addition of 3% phosphoric acid solution. 10 μL of the reaction is then spotted onto a P30 filtermat and washed three times for 5 minutes in 75 mM phosphoric acid and once in methanol prior to drying and scintillation counting.
as §4

TYK2 (h) = target: T3, TYK2 (h) (Homo sapiens, UniProt P29597); assay: TYK2 (h) kinase assay; conditions: [γ-33P-ATP] 10 μM or KM values; 40 minutes at room temperature
T3 construct: purchased Millipore UK Ltd (assays performed there as a service)
Description: as §1, §2
as §3, with “TYK2 (h)” for “FLT4 (h)”, “EDTA, 250” for “EDTA, 50”
as §4

T3 sequence (P29597 whole entry): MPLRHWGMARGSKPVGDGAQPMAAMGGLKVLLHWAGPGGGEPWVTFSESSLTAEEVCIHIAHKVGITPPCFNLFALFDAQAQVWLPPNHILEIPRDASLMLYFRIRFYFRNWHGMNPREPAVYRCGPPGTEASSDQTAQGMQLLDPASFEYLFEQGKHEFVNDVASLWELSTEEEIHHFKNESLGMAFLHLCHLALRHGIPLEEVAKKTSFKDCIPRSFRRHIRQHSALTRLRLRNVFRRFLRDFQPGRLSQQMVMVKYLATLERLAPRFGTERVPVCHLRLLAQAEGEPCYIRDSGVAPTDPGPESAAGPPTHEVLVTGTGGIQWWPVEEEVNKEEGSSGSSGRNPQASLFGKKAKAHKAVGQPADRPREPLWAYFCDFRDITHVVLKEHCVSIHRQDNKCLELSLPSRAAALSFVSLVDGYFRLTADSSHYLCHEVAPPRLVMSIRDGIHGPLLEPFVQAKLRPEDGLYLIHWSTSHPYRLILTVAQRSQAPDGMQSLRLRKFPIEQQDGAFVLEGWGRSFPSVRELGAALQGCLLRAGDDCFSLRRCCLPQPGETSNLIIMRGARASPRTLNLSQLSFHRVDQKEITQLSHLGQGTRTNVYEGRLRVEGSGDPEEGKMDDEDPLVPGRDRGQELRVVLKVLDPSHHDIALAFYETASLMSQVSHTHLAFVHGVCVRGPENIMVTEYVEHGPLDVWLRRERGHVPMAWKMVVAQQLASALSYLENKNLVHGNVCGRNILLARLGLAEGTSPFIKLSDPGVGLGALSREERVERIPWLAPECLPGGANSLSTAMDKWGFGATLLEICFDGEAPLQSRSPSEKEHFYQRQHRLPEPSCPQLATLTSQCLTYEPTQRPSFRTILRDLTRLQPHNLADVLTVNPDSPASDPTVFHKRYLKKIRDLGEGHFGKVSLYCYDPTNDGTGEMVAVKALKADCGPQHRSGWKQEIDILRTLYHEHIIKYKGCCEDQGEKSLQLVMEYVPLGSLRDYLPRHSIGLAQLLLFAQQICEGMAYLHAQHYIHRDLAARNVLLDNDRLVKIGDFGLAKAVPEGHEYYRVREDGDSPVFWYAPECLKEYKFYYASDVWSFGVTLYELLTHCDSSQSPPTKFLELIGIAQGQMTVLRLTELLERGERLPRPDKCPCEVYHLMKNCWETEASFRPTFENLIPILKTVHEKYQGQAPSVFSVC
T1 sequence (P35916 25-1363): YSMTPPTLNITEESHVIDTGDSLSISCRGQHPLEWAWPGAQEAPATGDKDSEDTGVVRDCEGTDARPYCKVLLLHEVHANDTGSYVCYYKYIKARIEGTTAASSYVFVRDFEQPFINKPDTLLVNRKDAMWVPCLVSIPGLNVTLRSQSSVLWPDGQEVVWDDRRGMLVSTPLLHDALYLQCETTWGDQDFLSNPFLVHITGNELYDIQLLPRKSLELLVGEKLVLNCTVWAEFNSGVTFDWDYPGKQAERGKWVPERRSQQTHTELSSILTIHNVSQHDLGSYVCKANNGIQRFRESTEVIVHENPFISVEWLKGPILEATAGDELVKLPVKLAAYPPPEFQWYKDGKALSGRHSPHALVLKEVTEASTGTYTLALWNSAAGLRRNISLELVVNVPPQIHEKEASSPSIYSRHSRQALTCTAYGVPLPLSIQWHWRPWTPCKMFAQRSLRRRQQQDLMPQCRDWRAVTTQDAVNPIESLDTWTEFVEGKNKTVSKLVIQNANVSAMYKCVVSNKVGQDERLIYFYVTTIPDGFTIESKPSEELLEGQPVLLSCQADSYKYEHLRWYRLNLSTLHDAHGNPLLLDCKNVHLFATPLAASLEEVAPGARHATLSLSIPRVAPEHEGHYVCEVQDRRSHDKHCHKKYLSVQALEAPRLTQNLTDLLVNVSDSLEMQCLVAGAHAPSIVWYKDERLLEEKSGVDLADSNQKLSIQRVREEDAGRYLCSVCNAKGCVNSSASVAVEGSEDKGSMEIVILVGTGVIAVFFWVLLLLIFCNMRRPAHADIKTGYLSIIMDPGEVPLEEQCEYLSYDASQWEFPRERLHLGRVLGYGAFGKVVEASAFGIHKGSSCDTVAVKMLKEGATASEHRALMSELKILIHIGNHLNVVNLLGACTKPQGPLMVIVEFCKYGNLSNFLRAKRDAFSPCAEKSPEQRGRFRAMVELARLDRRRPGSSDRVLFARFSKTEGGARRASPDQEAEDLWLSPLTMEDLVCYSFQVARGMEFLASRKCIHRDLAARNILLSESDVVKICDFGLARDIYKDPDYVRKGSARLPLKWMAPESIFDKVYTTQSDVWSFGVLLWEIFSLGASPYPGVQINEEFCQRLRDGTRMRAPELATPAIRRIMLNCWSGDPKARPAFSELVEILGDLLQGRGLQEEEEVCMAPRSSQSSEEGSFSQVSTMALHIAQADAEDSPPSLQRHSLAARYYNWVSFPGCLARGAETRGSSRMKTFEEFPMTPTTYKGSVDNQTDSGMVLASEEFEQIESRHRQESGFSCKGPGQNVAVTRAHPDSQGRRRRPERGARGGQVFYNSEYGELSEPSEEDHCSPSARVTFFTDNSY

Row | Compound | IC50 (FLT4 (h)) [nM] | IC50 (JAK3 (h)) [nM] | IC50 (TYK2 (h)) [nM]
1 | CC(C)(O)Cc1nc2cc(Nc3ncc(Cl)c(NC4CCN(c5ccc(C#N)nn5)CC4)n3)ccn2n1 [Example 77, 6-(4-((5-chloro-2-((2-(2-hydroxy-2-methylpropyl)-[1,2,4]triazolo[1,5-a]pyridin-7-yl)amino)pyrimidin-4-yl)amino)piperidin-1-yl)pyridazine-3-carbonitrile] | 166 | 353 | 9
2 | CC(C)(O)c1nc2cc(Nc3ncc(Cl)c(NC4CCN(c5ccc(C#N)nn5)CC4)n3)ccn2n1 [Example 55, 6-(4-((5-chloro-2-((2-(2-hydroxypropan-2-yl)-[1,2,4]triazolo[1,5-a]pyridin-7-yl)amino)pyrimidin-4-yl)amino)piperidin-1-yl)pyridazine-3-carbonitrile] | 95 | 291 | 
3 | CC(O)Cn1cnc2cc(Nc3ncc(Cl)c(NC4CCN(c5ccc(C#N)cn5)CC4)n3)ccc21 (centres unmarked) [Example 61, 6-(4-((5-chloro-2-((1-(2-hydroxypropyl)-1H-benzo[d]imidazol-5-yl)amino)pyrimidin-4-yl)amino)piperidin-1-yl)nicotinonitrile] | 20 | 5 | 0.9
4 | CC(C)(O)Cc1cn2cc(Nc3ncc(Cl)c(NC4CCN(c5ccc(C#N)cn5)CC4)n3)ccc2n1 [Example 73, 6-(4-((5-chloro-2-((2-(2-hydroxy-2-methylpropyl)imidazo[1,2-a]pyridin-6-yl)amino)pyrimidin-4-yl)amino)piperidin-1-yl)nicotinonitrile] | 87 | 112 | 
5 | CC(C)(O)Cc1nc2cc(Nc3ncc(Cl)c(NC4CCN(c5ccc(C#N)cn5)CC4)n3)ccn2n1 [Example 78, 6-(4-((5-chloro-2-((2-(2-hydroxy-2-methylpropyl)-[1,2,4]triazolo[1,5-a]pyridin-7-yl)amino)pyrimidin-4-yl)amino)piperidin-1-yl)nicotinonitrile] | 117 | 344 | 5
6 | CC(C)(O)Cc1nnc2cc(Nc3ncc(Cl)c(NC4CCN(c5ccc(C#N)cn5)CC4)n3)ccn12 [Example 74, 6-(4-((5-chloro-2-((3-(2-hydroxy-2-methylpropyl)-[1,2,4]triazolo[4,3-a]pyridin-7-yl)amino)pyrimidin-4-yl)amino)piperidin-1-yl)nicotinonitrile] | 57 | 64 | 
7 | Cc1nc2cc(Nc3ncc(Cl)c(NC4CCN(c5ccc(C#N)cn5)CC4)n3)ccn2n1 [Example 32, 6-(4-((5-chloro-2-((2-methyl-[1,2,4]triazolo[1,5-a]pyridin-7-yl)amino)pyrimidin-4-yl)amino)piperidin-1-yl)nicotinonitrile] |  | 60 | 2
8 | CC(C)(O)Cn1nnc2cc(Nc3ncc(Cl)c(NC4CCN(c5ccc(C#N)cn5)CC4)n3)ccc21 [Example 69, 6-(4-((5-chloro-2-((1-(2-hydroxy-2-methylpropyl)-1H-benzo[d][1,2,3]triazol-5-yl)amino)pyrimidin-4-yl)amino)piperidin-1-yl)nicotinonitrile] | 15 | 5 | 0.7
9 | N#Cc1ccc(N2CCC(Nc3nc(Nc4ccn5c(C(F)F)nnc5c4)ncc3Cl)CC2)nc1 [Example 30, 6-(4-((5-chloro-2-((3-(difluoromethyl)-[1,2,4]triazolo[4,3-a]pyridin-7-yl)amino)pyrimidin-4-yl)amino)piperidin-1-yl)nicotinonitrile] |  | 127 | 4
10 | CC(C)(O)Cc1nc2ccc(Nc3ncc(Cl)c(NC4CCN(c5ccc(C#N)cn5)CC4)n3)cn2n1 [Example 67, 6-(4-((5-chloro-2-((2-(2-hydroxy-2-methylpropyl)-[1,2,4]triazolo[1,5-a]pyridin-6-yl)amino)pyrimidin-4-yl)amino)piperidin-1-yl)nicotinonitrile] | 113 |  | 8
11 | CC(C)(O)Cc1nnc2cc(Nc3ncc(Cl)c(NC4CCN(c5ccc(C#N)nn5)CC4)n3)ccn12 [Example 75, 6-(4-((5-chloro-2-((3-(2-hydroxy-2-methylpropyl)-[1,2,4]triazolo[4,3-a]pyridin-7-yl)amino)pyrimidin-4-yl)amino)piperidin-1-yl)pyridazine-3-carbonitrile] | 202 | 202 | 

From US10683297B2 (Sunshine Lake Pharma Co., Ltd., priority 2017, dated 2020)
